One data set deals with Spodoptera frugiperda. Briefly: Spodoptera frugiperda spray test. Format: in vivo. The conditions noted are these: after 7 days, maize leaf discs; for pest or weed control at 100 g/ha / pest or weed control at 500 g/ha: Spodoptera frugiperda, foliar, 168 h, read-out: efficacy (caterpillars killed). The procedure: Spodoptera frugiperda—Spray Test
Solvent: 78.0 parts by weight of acetone • • 1.5 parts by weight of dimethylformamide
Emulsifier: alkylaryl polyglycol ether
To produce a suitable active ingredient formulation, 1 part by weight of active ingredient is dissolved with the specified parts by weight of solvent and made up with water containing an emulsifier concentration of 1000 ppm until the desired concentration is attained. To produce further test concentrations, the formulation is diluted with emulsifier-containing water.
Leaf discs of maize (Zea mays) are sprayed with an active ingredient formulation of the desired concentration and, after drying, populated with caterpillars of the armyworm (Spodoptera frugiperda).
After 7 days, the efficacy in % is determined. 100% means that all the caterpillars have been killed; 0% means that no caterpillar has been killed.

Data set [1] in a line: log P by HPLC on reversed-phase column (C 18), EEC Directive 79/831 Annex V.A8. The data set is classed as physicochemical. The conditions noted are these: 55° C.; for LOGP_HCOOH: log P (HCOOH); for chromatographic logP: reversed-phase HPLC column (C 18). Here is the method:
Temperature: 55° C. […] Called log P (HCOOH) in the table. […] Called log P (neutral) in the table.

Where [2] appears, read: acidic range at pH 2.7, 0.1% aqueous formic acid and acetonitrile, HPLC on reversed-phase column (C 18).
[3] abbreviates: log P, neutral range, HPLC on reversed-phase column (C 18).
Setting [4] is: acidic range pH 2.7, 0.1% aqueous formic acid and acetonitrile, reversed-phase column (C 18).
[5] abbreviates: log P (neutral), HPLC reversed-phase column (C 18).
Where [6] appears, read: pH 2.7, LC-MS acidic range, pH 2.7, 0.1% formic acid/acetonitrile, read-out: log P (acidic) / log P (HCOOH).
[7] abbreviates: pH 7.8, LC-MS neutral range, pH 7.8, ammonium hydrogencarbonate/acetonitrile, read-out: log P (neutral).

Each structure is given as a SMILES string. Read-outs that look alike come from different tables or passages of the source.

On to `N#CCCCCCNC(=O)c1cc(-c2ccc(OC(F)(F)F)cc2)cc(NC(=O)C2CC2)n1` [Example I-200], for which the “efficacy (caterpillars killed)” value in the data set on Spodoptera frugiperda (application rate 100 g/ha) and in the data set on Spodoptera frugiperda (application rate 500 g/ha) was 100% in each case. Moreover, in data set [1] (setting [2]), the LOGP_HCOOH is listed as 3.59. The LOGP_NEUTRAL in data set [1] (setting [3]) is 3.51.
Take `N#Cc1ccc(CNC(=O)c2cc(-c3ccc(OC(F)(F)F)cc3)cc(NC(=O)C3(C(F)(F)F)CC3)n2)cc1` [Example I-242]: the “efficacy (caterpillars killed)” value in the data set on Spodoptera frugiperda (application rate 500 g/ha) was 100%. In data set [1] (setting [4]), this compound had an LOGP_HCOOH of 4.57. For the same compound, the LOGP_NEUTRAL in data set [1] (setting [5]) is recorded as 4.63.
As to `O=C(NC1CCS(=O)(=O)C1)c1cc(-c2ccc(OC(F)(F)F)cc2)cc(NC(=O)C2CC2)n1` (stereo not drawn) [Example I-187], in the data set on Spodoptera frugiperda (application rate 500 g/ha), the “efficacy (caterpillars killed)” value stood at 83%. In data set [1] (setting [2]), this compound returned an LOGP_HCOOH of 3.09. Besides, the LOGP_NEUTRAL in data set [1] (setting [3]) was 3.00.
Consider `N#Cc1ccc(CCNC(=O)c2cc(-c3ccc(C(F)(F)F)cc3)cc(NC(=O)C3CC3)n2)cc1` [Example I-046], for which, in the data set with Spodoptera frugiperda (application rate 500 g/ha), the “efficacy (caterpillars killed)” value stood at 83%. In addition, the LOGP_HCOOH in data set [1] (setting [4]) is reported as 3.80. Further, the LOGP_NEUTRAL in data set [1] (setting [3]) is given as 3.76.
Take `N#Cc1ccc(CNC(=O)c2cc(-c3ccc(OC(F)(F)F)cc3)cc(NC(=O)Cc3ccc(C(F)(F)F)cc3)n2)cc1` [Example I-260]: the “efficacy (caterpillars killed)” value with Spodoptera frugiperda (application rate 100 g/ha) and in the data set with Spodoptera frugiperda (application rate 500 g/ha) was 100% each time. This compound also returned an LOGP_HCOOH in data set [1] (setting [4]) of 4.68. Moreover, the LOGP_NEUTRAL in data set [1] (setting [5]) was determined as 4.66.
As to `N#Cc1ccc(CNC(=O)c2cc(-c3ccc(OC(F)(F)F)cc3)cc(NC(=O)c3ccc(Cl)nc3)n2)cc1` [Example I-256], the “efficacy (caterpillars killed)” value in the data set on Spodoptera frugiperda (application rate 500 g/ha) is reported as 100%. This compound also came in with an LOGP_HCOOH in data set [1] (setting [4]) of 4.25. In data set [1] (setting [5]), the LOGP_NEUTRAL was found to be 4.20.
As to `N#Cc1ccc(CNC(=O)c2cc(-c3ccc(OC(F)F)cc3)cc(NC(=O)C3CC3)n2)cc1` [Example I-029], the “efficacy (caterpillars killed)” value in the data set on Spodoptera frugiperda (application rate 500 g/ha) turned out to be 83%. In addition, the LOGP_HCOOH in data set [1] (setting [4]) came out at 3.28. The LOGP_NEUTRAL in data set [1] (setting [3]) is on record as 3.21.
In the same order, the values of `N#Cc1ccc(CNC(=O)c2cc(-c3ccc(C(F)(F)F)cc3)cc(NC(=O)c3ccc(Cl)cc3)n2)cc1` [Example I-023] are 83%, 4.77 and 4.66.
Turning to `N#Cc1ccc(CNC(=O)c2cc(-c3cc(F)c(C(F)(F)C(F)(F)F)cc3Cl)cc(NC(=O)C3CC3)n2)cc1` [Example I-269], the “efficacy (caterpillars killed)” value with Spodoptera frugiperda (application rate 500 g/ha) was found to be 83%. For the same compound, in data set [1] (setting [4]), the LOGP_HCOOH is reported as 4.34.
For the compound `CCN(C(=O)C(C)C)c1cc(-c2ccc(OC(F)(F)F)cc2)cc(C(=O)NCc2ccc(C#N)cc2)n1` [Example I-221], the “efficacy (caterpillars killed)” value with Spodoptera frugiperda (application rate 100 g/ha) amounted to 80%. Moreover, the LOGP_HCOOH in data set [1] (setting [2]) worked out at 4.20. The same compound had an LOGP_NEUTRAL in data set [1] (setting [3]) of 4.20.
`O=C(NC1(c2ccc([N+](=O)[O-])cc2)CC1)c1cc(-c2ccc(OC(F)(F)F)cc2)cc(NC(=O)C2CC2)n1` [Example I-229]: the “efficacy (caterpillars killed)” value in the data set with Spodoptera frugiperda (application rate 500 g/ha) was 100%. The compound further returned an LOGP_HCOOH in data set [1] (setting [2]) of 4.23.
As to `N#Cc1ccc(CNC(=O)c2cc(-c3ccc(C4(C(F)(F)F)CC4)cc3)cc(NC(=O)C3CC3)n2)cc1` [Example I-193], in the data set with Spodoptera frugiperda (application rate 500 g/ha), the “efficacy (caterpillars killed)” value stood at 100%. In data set [1] (setting [2]), this compound registered an LOGP_HCOOH of 4.12. The LOGP_NEUTRAL in data set [1] (setting [3]) came to 3.95.
Consider `O=C(NCC1CCCC1)c1cc(-c2ccc(OC(F)(F)F)cc2)cc(NC(=O)C2CC2)n1` [Example I-170], for which the “efficacy (caterpillars killed)” value in the data set with Spodoptera frugiperda (application rate 100 g/ha) came out at 83%; in the data set with Spodoptera frugiperda (application rate 500 g/ha) it was 100%. This compound registered an LOGP_HCOOH in data set [1] (setting [2]) of 4.68. For the same compound, the LOGP_NEUTRAL in data set [1] (setting [3]) came out at 4.55.
Regarding `COC(=O)C(C)NC(=O)c1cc(-c2ccc(OC(F)(F)F)cc2)cc(NC(=O)C2CC2)n1` (stereo not drawn) [Example I-136], the “efficacy (caterpillars killed)” value in the data set on Spodoptera frugiperda (application rate 500 g/ha) was found to be 100%. The same compound returned an LOGP_HCOOH in data set [1] (setting [2]) of 3.68.
On to `COC(=O)N(Cc1ccc(C#N)cc1)C(=O)c1cc(-c2ccc(OC(F)(F)F)cc2)cc(NC(=O)C2CC2)n1` [Example I-231, Methyl (4-cyanobenzyl)({6-[(cyclopropylcarbonyl)amino]-4-[4-(trifluoromethoxy)phenyl]pyridin-2-yl}carbonyl)carbamate], for which the pest or weed control at 100 g/ha in the data set on Spodoptera frugiperda (application rate 100 g/ha) came out at 100%. In addition, the pest or weed control at 500 g/ha in the data set with Spodoptera frugiperda (application rate 500 g/ha) turned out to be 100%. In addition, in data set [1] (setting [2]), the LOGP_HCOOH came out at 4.41. The LOGP_NEUTRAL in data set [1] (setting [3]) is given as 4.43. The figures for the chromatographic logP in data set [1] (setting [6]) and in data set [1] (setting [7]) were 4.41 and 4.43, respectively.
`N#Cc1ccc(CNC(=O)c2cc(-c3ccc(OC(F)(F)F)cc3)cc(NC(=O)c3cnco3)n2)cc1` [Example I-212]: the “efficacy (caterpillars killed)” value in the data set on Spodoptera frugiperda (application rate 500 g/ha) came to 100%. Moreover, in data set [1] (setting [2]), the LOGP_HCOOH worked out at 3.44. For the same compound, the LOGP_NEUTRAL in data set [1] (setting [3]) is 3.34.
On to `O=C(NCc1ccc(Cl)cc1Cl)c1cc(-c2ccc(C(F)(F)F)cc2)cc(NC(=O)C2CC2)n1` [Example I-010], for which the “efficacy (caterpillars killed)” value in the data set with Spodoptera frugiperda (application rate 500 g/ha) turned out to be 100%. The compound further had an LOGP_HCOOH in data set [1] (setting [4]) of 5.00. Further, the LOGP_NEUTRAL in data set [1] (setting [3]) is 4.89.
In the same order, the values of `CC(C)CNC(=O)c1cc(-c2ccc(C(F)(F)F)cc2)cc(NC(=O)C2CC2)n1` [Example I-032] are 100%, 4.06 and 3.98.
For `O=C(NCc1cccc(Cl)c1)c1cc(-c2ccc(C(F)(F)F)cc2)cc(NC(=O)C2CC2)n1` [Example I-006] the same measures were 100%, 4.49 and 4.43.
Turning to `CC1(NC(=O)c2cc(-c3ccc(OC(F)(F)F)cc3)cc(NC(=O)C3CC3)n2)CSC1` [Example I-163], the “efficacy (caterpillars killed)” value in the data set on Spodoptera frugiperda (application rate 500 g/ha) is 100%. The compound also returned an LOGP_HCOOH in data set [1] (setting [2]) of 4.32. The same compound returned an LOGP_NEUTRAL in data set [1] (setting [3]) of 4.24.
For the compound `O=C(NCC1CCC1)c1cc(-c2ccc(C(F)(F)F)cc2)cc(NC(=O)C2CC2)n1` [Example I-049], the “efficacy (caterpillars killed)” value in the data set with Spodoptera frugiperda (application rate 500 g/ha) came to 83%. The compound further had an LOGP_HCOOH in data set [1] (setting [4]) of 4.21. Also, the LOGP_NEUTRAL in data set [1] (setting [3]) is listed as 4.10.
In the same order, the values of `N#Cc1ccc(CNC(=O)c2cc(-c3ccc(C(F)(F)F)cc3)cc(NC(=O)c3ccccc3Cl)n2)cc1` [Example I-047] are 83%, 4.26 and 4.15.
In the same order, the values of `O=C(NCCCc1ccc(C(F)(F)F)cc1)c1cc(-c2ccc(C(F)(F)F)cc2)cc(NC(=O)C2CC2)n1` [Example I-058] are 100%, 4.94 and 4.79.
In the same order, the values of `O=C(NCc1cc(F)c(Cl)cc1Cl)c1cc(-c2ccc(OC(F)(F)F)cc2)cc(NC(=O)C2CC2)n1` [Example I-063] are 100%, 5.20 and 5.07.
Turning to `N#Cc1ccc(CNC(=S)c2cc(-c3ccc(OC(F)(F)F)cc3)cc(NC(=S)C3CC3)n2)cc1` [Example I-181, N-(4-Cyanobenzyl)-6-[(cyclopropylcarbonothioyl)amino]-4-[4-(trifluoromethoxy)phenyl]pyridine-2-carbothioamide], the pest or weed control at 100 g/ha in the data set with Spodoptera frugiperda (application rate 100 g/ha) came out at 100%. Further, the pest or weed control at 500 g/ha in the data set with Spodoptera frugiperda (application rate 500 g/ha) was 100%. Besides, the LOGP_HCOOH in data set [1] (setting [2]) was 5.54. In data set [1] (setting [3]), this compound yielded an LOGP_NEUTRAL of 5.43. Further, the values for the chromatographic logP in data set [1] (setting [6]) and in data set [1] (setting [7]) were 5.54 and 5.43, respectively.

Values taken from patent US20190053492A1, “SUBSTITUTED PYRIDINE COMPOUNDS AS PESTICIDES” (Bayer CropScience Aktiengesellschaft, priority 2016, published 2019).
